Assay [1] has as its system OCT4 phosphorylation in NCCIT cell line. Nature of the assay: Western blotting of OCT4 phosphorylation in NCCIT cell line transformed with peptide vectors. It is filed as cell-based, human. As to conditions: vector-expressed peptide, cultured 36 to 48 hours, western blotting quantified with ImageJ (FIG. 16). An excerpt: In order to confirm the link between the phosphorylation of an octamer-binding transcription factor 4 (OCT4) protein and stemness, first, a cell line expressing OCT4 substituted with 236D as an OCT4 S236 phosphorylation mimetic mutant was constructed. For construction of cells, a lentivirus expressing short hairpin RNA ([…], SEQ ID NO: 1) and a puromycin resistance gene in a doxycycline-dependent manner was constructed, and primarily, NCCIT(ATCC® CRL-2073™) and NTERA-2 (ATCC® CRL-1973™), which are cancer stem cell lines, were transfected with the lentivirus. Then, a plasmid recombinant for expressing OCT4 wild type and blasticidine resistance genes, or OCT4 substituted with 236D which is a phosphorylation mimetic of OCT4 and blasticidine resistance genes in a pCAG-Flag-B/S vector was secondarily transfected into the transfected cell line using Lipofectamine 3000 (Thermo Fisher). […]
After an NCCIT cell line was transformed by inserting the vector constructed by the method in Example 5 into the NCCIT cell line using Lipofectamine 3000, and then cultured for 36 hours to 48 hours, western blotting was performed in the same manner as in Example 2.1. The quantification of western blotting was analyzed using ImageJ. […]
(In general: A western blot detects proteins with antibodies after separation by electrophoresis.)

The next assay deals with PP1 protein. The assay is described as follows: Fluorescence polarization binding of FITC-bound peptides to purified PP1 protein. The method, then: Peptides in which FITC was bound to Helix-1, Helix-2, and Helix-3 in Example 4 were synthesized.
The peptides were uniformly aliquoted at a final concentration of 20 nM into a fluorescence polarization reaction buffer solution (10 mM HEPES pH7.5, 50 mM NaCl, 1 mM DTT, 1 mM EDTA, and 0.0025% Tween 20), a purified PP1 protein was added thereto, and then the resulting mixture was reacted for 30 minutes, and the results of measuring fluorescence polarization using TECAN Infinite F200 Pro are illustrated in FIG. 19.
The binding powers of Helix 3-1 (SEQ ID NO: 14), Helix 3-2 (SEQ ID NO: 15), Helix 3-3 (SEQ ID NO: 13), and Helix 3 were compared by narrowing the sequence involved in binding to PP1 in the Helix-3 sequence (SEQ ID NO: 11) consisting of 19 amino acids.

Assay [2] relates to OCT4 S236 phosphorylation in cell lines. The assay is described as follows: Immunofluorescence staining of OCT4 phosphorylation after cell permeable peptide treatment. Format: cell-based. The conditions noted are these: cell permeable peptide 10 uM in cell culture solution, 2 days or more; immunofluorescence staining (FIG. 21).
Assay [3] concerns OCT4 S236 phosphorylation in NCCIT and NTERA-2 cell lines. Nature of the assay: Okadaic acid (PP1 inhibitor) treatment, western blotting and immunofluorescence staining of OCT4 S236 phosphorylation. It is filed as cell-based, human. The conditions noted are these: NCCIT and NTERA-2 treated with okadaic acid; western blotting and immunofluorescence (FIGS. 10, 11).

These results are taken from patent US11717556B2, “Stemness-suppressing composition comprising OCT4 function-inhibiting peptide” (NATIONAL CANCER CENTER, priority 2018, dated 2023).

Where no end group is shown, it is not given here.

On to “Helix 1: Amino acid sequence NRVRGNLENL; OCT4 function-inhibiting peptide (also: FITC label (site not given here))”, for which the “phosphorylation of OCT4” value in assay [1] is “the highest”.
“Helix 3-3: Amino acid sequence VVRVWFCNRRQK; consisting of 12 amino acids (Helix 3-3)”: the “binding power to PP1 compared with Helix-3” value with PP1 protein (FITC-bound peptides, fluorescence polarization (FIG. 20)) is on record as “the same binding power as that of Helix-3”.
Consider “11R-GGG-VVRVWFCNRRQK: Cell permeable peptide to which the sequence of Helix-3-3 was linked: RRRRRRRRRRRGGGVVRVWFCNRRQK (Cell penetrating peptide CPP H3-3)”, for which, in assay [2], the “phosphorylation of OCT4” value is on record as “increase in phosphorylation of OCT4”.
In the case of `C=C1[C@@H](O)[C@@H]2O[C@]3(CC[C@H](/C=C/[C@@H](C)[C@@H]4CC(C)=C[C@@]5(O[C@H](C[C@@](C)(O)C(=O)O)CC[C@H]5O)O4)O3)CC[C@H]2O[C@@H]1[C@@H](O)C[C@H](C)[C@H]1O[C@@]2(CCCCO2)CC[C@H]1C` [okadaic acid], in assay [3], the “phosphorylation of OCT4” value was “the phosphorylation of OCT4 was increased”.
Regarding “Helix 3: Amino acid sequence KDVVRVWFCNRRQKGKRSS; OCT4 function-inhibiting peptide consisting of 19 amino acids (Helix 3)”, the “binding to PP1 (fluorescence polarization values)” value in the assay on PP1 protein (FITC-bound peptide 20 nM, purified PP1 protein added, 30 minutes (FIG. 19)) is “bound”.
For the compound “Helix 1-3: Amino acid sequence NRVRGNLENLFLQCPKPTLQQISHIAQQLGLEKDVVRVWFCNRRQKGKRS; OCT4 function-inhibiting peptide, expressed from pCAG-F-puro vector (Helix 1-3)”, in assay [1], the “phosphorylation of OCT4” value is “the highest”.
